Consider five compounds from patent US7109234B2, “Benzoxathiepine derivatives and their use as medicines” (Pierre Fabre Medicament, priority 2001, dated 2006).

Read-outs that look alike come from different tables or passages of the source.

One data set has as its system New Zealand rabbits. Description: Occlusion-reperfusion model in the anesthetized animal (ECG ST segment, arterial pressure, heart rate). Format: in vivo, rabbit. The note with it: for Arterial pressure % variation / Heart rate % variation / ST segment % inhibition at 2.5 mg/kg p.o.: 2.5 mg/kg p.o., anesthetized rabbit; for ST segment % inhibition at 2.5 mg/kg p.o.: coronary occlusion-reperfusion; for in vivo activity (inhibition of the raising of the ST segment): stated in words, 2.5 mg/kg by the oral route. How it is done:
Thus, the compounds of the invention are capable of normalizing the electrical disturbances of the ECG brought about by a regional ischemia followed by a reperfusion, this being achieved without a significant effect on the hemodynamic parameters. The test in question is carried out according to the technique described in J. Cardiovasc. Pharmacol., 1995, 25, 126 according to the following protocol.
Male New Zealand rabbits (Elévage des Dombes, Romans, Chatillon-sur-Chalaronne, France) weighing 2.2 to 2.7 kg are used. The animals are placed in quarantine for 4 to 8 days with free access to standardized laboratory food before they are used in the experiments. The animals are housed individually. Water filtered through a 0.22 μm filter is freely available from an automatic dispenser. The quarantine area and the experimental laboratory are air-conditioned (temperature: 20±3° C.; relative humidity: 55±5%) and are illuminated from 7 a.m. to 7 p.m. All the animals are treated according to the code of ethics for laboratory animals (Guide for the Care and Use of Laboratory Animals, […], Public Health Service, National Institutes of Health publication No. 85-23, Revised 1985) and the protocol (No. 28) is carried out in accordance with the recommendations of the local research animals ethics committee. The animals are anesthetized using sodium pentobarbital (60 mg/kg) administered intravenously (i.v.) via a catheter positioned in the vein of the ear. The animals are instrumented with respiratory assistance (683 rodent/small animal ventilator, Havard Apparatus, Les Ulis, France). The gas mixture inhaled is enriched in oxygen. The respiratory rhythm, the flow volume and the percentage of oxygen in the gas mixture are adjusted so as to keep the gases in the blood within physiological limits. A polyethylene catheter, introduced into the carotid artery, is used both for the measurements of arterial pressure and to take the samples intended for the analysis of the blood gases (ABL 510, Radiometer, Copenhagen, Denmark). Anesthesia is maintained by injections of sodium pentobarbital as required. The body temperature of the animals is kept at 38–39° C. throughout the duration of the experiment using a heating blanket (Homothermic Blanket, Havard Apparatus). The various catheters are rinsed using a sterile saline solution (0.9%) comprising heparin (150 U.I./ml). The ECG (DII derivation) is recorded in order to measure the variations in the heart rate (RR interval) and in the amplitude of the ST segment. The arterial pressure is digitized and analyzed simultaneously (Dataflow®, Crystal Biotech, Northboro, Mass.). The thorax of the animal is opened at the fourth intercostal space and the pericardium is incised so as to reveal the left coronary artery. A ligature (Vicryl®, 5/0, Ethicon, Paris, France) is passed under this artery. After examining the ECG in order to detect any signs of myocardial lesions (persistent rise of the ST segment above 0.25 mV), a period of stabilization lasting 30 min is systematically observed. Any animal showing a possible myocardial lesion is excluded from the study. The test compound or the vehicle is administered per os (p.o.), as a 1% solution in methyl-cellulose, in a proportion of 1 ml/kg via a gastric tube made of flexible rubber. Anesthesia is produced 60 min after administration of the test compound or of the vehicle. The main coronary artery is then ligated for 10 min, i.e. 60 min after anesthesia, the tension in the ligature is subsequently relaxed completely for 10 min and then reestablished at the end of the procedure. The heart is excised and perfused using a formaldehyde solution (10%). The surface not fixed by the formaldehyde is regarded as the surface at risk.
The parameters measured in the experiment are: • the systolic and diastolic arterial pressure; • the heart rate (measured from the RR intervals); • the amplitude of the ST segment. […]

In another data set the test system is rat isolated left atrium. Description: Inhibition of the veratrine-induced contraction of the rat isolated left atrium. The note with it: for IC50: read-out: Contraction with veratrine Inhibition IC50; for in vitro activity (contraction with veratrine): stated in words. It is filed as cell-based.
Setting [1] is: rat isolated left atrium, veratrine 100 μg/ml, product added 15 min before.

Turning to `CC(C)NCC(O)COc1ccc(CC(N)=O)cc1` (stereo not shown) [Atenolol, atenolol], in the data set with New Zealand rabbits, the “Arterial pressure % variation” value is −9%, the “Heart rate % variation” value is −13%, the “ST segment % inhibition at 2.5 mg/kg p.o.” value is 49% and the “in vivo activity (inhibition of the raising of the ST segment)” value is on record as “active”. Also, in the data set on rat isolated left atrium (setting [1]), the IC50 is over 10000 nM. The “in vitro activity (contraction with veratrine)” value in the data set with rat isolated left atrium is “inactive”.

Regarding `COc1ccccc1SC[C@H](CN[C@@H]1COc2ccccc2SC1)OC` [Compound 1-1, 3-(R)-[3-(2-Methoxyphenylthio)-2-(S)-methoxypropyl]amino-3,4-dihydro-2H-1,5-benzoxathiepine], in the data set on New Zealand rabbits, the “Arterial pressure % variation” value worked out at 8%, the “Heart rate % variation” value amounted to 2% and the “ST segment % inhibition at 2.5 mg/kg p.o.” value came to 85%. Besides, in the data set on rat isolated left atrium (setting [1]), the concentration for half-maximal inhibition (IC50) amounted to 640 nM.

`COc1ccccc1SC[C@@H](C)CN[C@@H]1COc2ccccc2SC1` [Compound 1-7, 3-(R)-[3-(2-Methoxyphenylthio)-2-(S)-methylpropyl]amino-3,4-dihydro-2H-1,5-benzoxathiepine]: in the data set with New Zealand rabbits, the “Arterial pressure % variation” value turned out to be 5%, the “Heart rate % variation” value came out at 0% and the “ST segment % inhibition at 2.5 mg/kg p.o.” value was 69%. Moreover, the half-maximal inhibitory concentration (IC50) in the data set with rat isolated left atrium (setting [1]) amounted to 140 nM.

Turning to `COc1ccc([C@@H]2Sc3ccccc3N(CCN(C)C)C(=O)[C@@H]2OC(C)=O)cc1` [Diltiazem, diltiazem], in the data set on New Zealand rabbits, the “Arterial pressure % variation” value is recorded as −27%, the “Heart rate % variation” value is reported as −5%, the “ST segment % inhibition at 2.5 mg/kg p.o.” value is recorded as 30% and the “in vivo activity (inhibition of the raising of the ST segment)” value is “active”. In the data set on rat isolated left atrium (setting [1]), the IC50 was over 10000 nM. Moreover, the “in vitro activity (contraction with veratrine)” value in the data set with rat isolated left atrium is “inactive”.

On to `CN(c1nc2ccccc2s1)C1CCN(CCCCOc2ccc(F)cc2)CC1` [R 56865], for which the “ST segment % inhibition at 2.5 mg/kg p.o.” value in the data set on New Zealand rabbits turned out to be 0%. In the data set with rat isolated left atrium (Rattus norvegicus), the IC50 is 250 nM.
